Entries after “also recorded” stand apart in the source; their conditions may differ.
Key:
[1] = system: EKP-induced epileptiform activity in zebrafish; assay: Zebrafish EKP-induced seizure model, LFP recordings; format: in vivo
Procedure: FIG. 3. Representative LFP recordings of zebrafish in the absence (VHC) or presence of EKP, treated with 8.5-4.3 μM idebenone or untreated (VHC), in the presence or absence of a specific PHGDH inhibitor CBR-5884 [Mullarky et al. (2016) Proc Natl Acad Sci USA 113, 1778-1783].
FIG. 4: Normalized PSD per larvae for the different conditions. Number of epileptic events within a 10-min recording (mean±SEM.). Number of recordings analysed were: VHC (n=9), EKP (n=15), 8.5 μM idebenone (Ide) (n=10), 4.3 μM idebenone (n=10), 4.3 μM idebenone+inhibitor (n=9). PHGDH-inhibitor CBR-5884 was used. Statistical differences as compared to the EKP-only treated larvae were assessed by the following statistical analysis: one-way ANOVA with Dunnett's multiple comparison test. A statistical difference is indicated by: **p<0.01, ***p<0.001 and ****p<0.0001.ns=not significant.
Common to all epilepsies, seizures occur due to an abnormal, excessive and synchronous activity of large neuronal populations. As such, seizures can be observed on electrophysiological recordings such as invasive or non-invasive local field potential (LFP) measurements, being a counterpart of electroencephalogram (EEG) performed in humans. Indeed, these techniques serve as a gold standard for epilepsy diagnosis. […]

human recombinant PHGDH = biological target: T1, human recombinant PHGDH (Homo sapiens, UniProt O43175); assay: PHGDH enzyme activity, colorimetric PHGDH activity kit (absorbance at 450 nm, NADH generated)
T1 sequence (O43175 1-533): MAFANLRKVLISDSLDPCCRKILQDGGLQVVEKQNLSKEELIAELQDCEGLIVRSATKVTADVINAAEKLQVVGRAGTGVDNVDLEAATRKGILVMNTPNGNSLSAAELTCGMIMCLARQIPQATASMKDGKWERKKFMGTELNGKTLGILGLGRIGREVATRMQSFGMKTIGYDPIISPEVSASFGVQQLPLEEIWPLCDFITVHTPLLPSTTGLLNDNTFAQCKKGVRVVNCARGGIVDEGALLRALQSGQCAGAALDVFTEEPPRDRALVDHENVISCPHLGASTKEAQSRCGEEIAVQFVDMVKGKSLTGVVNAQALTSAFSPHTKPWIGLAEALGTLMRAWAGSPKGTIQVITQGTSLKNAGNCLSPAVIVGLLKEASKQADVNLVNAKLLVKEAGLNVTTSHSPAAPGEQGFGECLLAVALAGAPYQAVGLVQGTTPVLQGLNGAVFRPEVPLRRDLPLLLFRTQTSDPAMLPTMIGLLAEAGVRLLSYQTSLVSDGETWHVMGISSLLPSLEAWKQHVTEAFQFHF
Procedure: As a readout, absorbance at 450 nm, indicative for the amount of NADH generated, was measured over time.

[2] = mouse, in vivo; cited from earlier work
[3] = system: Arginase 1 expression (microglia/macrophage M2 marker); assay: Temporal lobe epilepsy model (SSSE), Arginase-1 expression by real-time quantitative PCR of brain tissue; format: in vivo, C57bl/6 mice; conditions: 100 mg/kg twice daily i.p. for one week, vs vehicle control; p=0.017; two-way ANOVA (FIG. 5)
Procedure: The present example investigates whether Idebenone has the potential to modulate neuroinflammation from an M1 to M2 phenotype. […] (control animals received vehicle injections for one week). Idebenone was suspended in 5% dimethyl sulfoxide and 20% Kolliphor RH40 in 0.01M PBS. Expression of the major marker for M2 polarization, Arginase-1, was assessed via real-time quantitative PCR upon brain tissue processing. Two-way ANOVA analysis was performed to evaluate the effect of two factors including the treatment and the SSSE [self-sustained Electrical Status Epilepticus], and any interaction of the two factors.

[4] = system: EKP-induced seizures in zebrafish larvae; assay: Zebrafish EKP-induced seizure model, locomotor activity tracking; format: in vivo; conditions: 8.5 μM, 2 h pre-incubation, 300 μM EKP, 7 dpf larvae, 30 min recording; ****p<0.0001
Procedure: FIG. 2. Activity profile of 8.5 μM idebenone after 300 μM EKP exposure. Locomotor activity was quantified using ZebraLab™ software (Viewpoint, Lyon, France) and expressed in mean “actinteg” units per 5-min+/−SEM during a 30 min recording interval as indicated above. Statistical analysis: one-way ANOVA with Dunnett's multiple comparison test. A statistical difference is indicated by: ****p<0.0001. For each condition n=10 larvae were used and the experiment was performed three times (n total=30 per condition).
The EKP-induced epilepsy zebrafish model is a suitable model to investigate drug resistant epilepsy. Ethyl ketopentenoate (EKP) is a lipid-permeable GAD-inhibitor that results in […] and drug resistant seizures in zebrafish [Zhang et al. (2017) Sci Rep. 7, 7195]. […]
Larvae (7dpf) in 100 μl VHC were arrayed individually in a 96-well plate (tissue culture plate, at bottom, Falcon, USA) and kept in the light at 28° C. […] The plates were placed in an automated video tracking device (ZebraBox™ apparatus; Viewpoint, Lyon, France) and the locomotor behaviour of the larvae was monitored for […] in the dark at 28° C. Locomotor activity was quantified using ZebraLab™ software (Viewpoint, Lyon, France) and expressed in “actinteg” units per 5-min interval. […] The actinteg value is defined as the sum of all image pixel changes detected during the time window.

[5] = system: pilocarpine-induced seizures; conditions: rats, preventive treatment 3 days prior to pilocarpine injection; Ahmed (2014); cited from earlier work
[6] = system: EKP-induced epileptiform activity in zebrafish; conditions: 1 μM; Zhang et al. (2017); cited from earlier work

CBR-5884
blocking of the anti-seizure activity of idebenone ([1]; co-administration with idebenone (4.3 μM)): could be blocked by co-administration
blocking of idebenone-induced increased PHGDH activity (human recombinant PHGDH; co-administration with idebenone): can be blocked by co-administration

COC1=C(OC)C(=O)C(CCCCCCCCCCO)=C(C)C1=O [Idebenone, 6-(10-hydroxydecyl)-2,3-dimethoxy-5-methyl-1,4-benzoquinone]
LD50 [2]: exceeds 10,000 mg/kg
expression of M2 marker Arginase 1 [3]: increases the expression; also recorded: significant increase
EKP-induced epileptiform activity, LFP recordings ([1]; 8.5-4.3 μM, 10-min recording): significantly reduced EKP-induced epileptiform activity
EKP-induced seizures assessed as locomotor movement (actinteg units per 5-min) [4]: significantly reduced EKP-induced seizures
neuroprotection in pilocarpine-induced seizure model [5]: provides neuroprotection
effect on the oxido-reduction reaction toward NADH generation (compound itself) (human recombinant PHGDH): does not affect the oxido-reduction reaction toward NADH generation
PHGDH enzyme activity (human recombinant PHGDH; 25 µM idebenone, over time, DMSO 0.5% (FIG. 1)): induces increased enzyme activity of PHGDH

N#Cc1ccccc1-c1cc(-c2ccccn2)cn(-c2ccccc2)c1=O [Perampanel]
anti-seizure activity in the EKP model [6]: anti-seizure activity

— patent US20240269091A1, “IDEBENONE IN THE TREATMENT OF DRUG RESISTANT EPILEPSY” (Katholieke Universiteit Leuven, priority 2021, published 2024)
